Measurements published in the supplement of paper PMC10307832.

Assays:
Assay in all cases: relative viability (nuclei count vs DMSO), 5 days (fraction); higher = more cells survive
[1] = compound: CC1=CC(=NN1)NC2=CC(=NC(=N2)/C=C/C3=CC=CC=C3)N4CCN(CC4)C + COc1cccc2cc(-c3nc([C@H]4CC[C@H](C(=O)O)CC4)n4ncnc(N)c34)[nH]c12 [OSI-027] (partner 0.5 µM)
How it was run: (§1)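 Each reported value is a median over duplicate plates. It expresses relative viability: treated-well nuclei count divided by vehicle-well nuclei count. Lung cancer cell lines in 1536-well plates were dosed by pin tool a day after seeding, alone with one drug or with a fixed anchor-drug dose plus five library-drug doses (not always all listed) in √10 steps, and nuclei were counted after 5 days.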

[2] = compound: COC1=CC(c2cc3ccccc3[nH]2)=N/C1=C\c1[nH]c(C)cc1C [Obatoclax] + Nc1ncn([C@H]2C[C@H](O)[C@@H](CO)O2)c(=O)n1 [Decitabine] (partner 2 µM)
How it was run: as §1

[3] = compound: CC1=CC(=NN1)NC2=CC(=NC(=N2)/C=C/C3=CC=CC=C3)N4CCN(CC4)C + O=C(CCCCCCC(=O)Nc1ccccc1)NO [Vorinostat] (partner 1 µM)
How it was run: as §1

[4] = compound: CC(C)C[C@H](NC(=O)[C@H](Cc1ccccc1)NC(=O)c1cnccn1)B(O)O [Bortezomib] + CS(=O)(=O)CCNCc1ccc(-c2ccc3ncnc(Nc4ccc(OCc5cccc(F)c5)c(Cl)c4)c3c2)o1 [Lapatinib] (partner 2 µM)
How it was run: as §1

NCI-H2085
relative viability ([1]; first compound 0.08 µM): 0.728 | relative viability ([1]; first compound 0.253 µM): 0.755 | relative viability ([1]; first compound 0.8 µM): 0.758 | relative viability ([1]; first compound 2.53 µM): 0.334 | relative viability ([1]; first compound 8 µM): 0.193 | relative viability ([2]; first compound 0.01 µM): 0.531 | relative viability ([2]; first compound 0.03162 µM): 0.484 | relative viability ([2]; first compound 0.1 µM): 0.524 | relative viability ([2]; first compound 0.3162 µM): 0.499 | relative viability ([2]; first compound 1 µM): 0.472 | relative viability ([3]; first compound 0.08 µM): 0.826 | relative viability ([3]; first compound 0.253 µM): 0.95 | relative viability ([3]; first compound 0.8 µM): 0.822 | relative viability ([3]; first compound 2.53 µM): 0.322 | relative viability ([3]; first compound 8 µM): 0.366 | relative viability ([4]; first compound 0.0002 µM): 0.725 | relative viability ([4]; first compound 0.000632 µM): 0.759 | relative viability ([4]; first compound 0.002 µM): 0.727 | relative viability ([4]; first compound 0.006325 µM): 0.382 | relative viability ([4]; first compound 0.02 µM): 0.231

NCI-H2087
relative viability ([1]; first compound 0.08 µM): 0.622 | relative viability ([1]; first compound 0.253 µM): 0.295 | relative viability ([1]; first compound 0.8 µM): 0.537 | relative viability ([1]; first compound 2.53 µM): 0.196 | relative viability ([1]; first compound 8 µM): 0.109 | relative viability ([2]; first compound 0.01 µM): 0.215 | relative viability ([2]; first compound 0.03162 µM): 0.254 | relative viability ([2]; first compound 0.1 µM): 0.34 | relative viability ([2]; first compound 0.3162 µM): 0.135 | relative viability ([2]; first compound 1 µM): 0.142 | relative viability ([3]; first compound 0.08 µM): 0.697 | relative viability ([3]; first compound 0.253 µM): 0.954 | relative viability ([3]; first compound 0.8 µM): 0.72 | relative viability ([3]; first compound 2.53 µM): 0.324 | relative viability ([3]; first compound 8 µM): 0.141 | relative viability ([4]; first compound 0.0002 µM): 0.897 | relative viability ([4]; first compound 0.000632 µM): 0.951 | relative viability ([4]; first compound 0.002 µM): 0.541 | relative viability ([4]; first compound 0.006325 µM): 0.114 | relative viability ([4]; first compound 0.02 µM): 0.0853

NCI-H2126
relative viability ([1]; first compound 0.08 µM): 0.74 | relative viability ([1]; first compound 0.253 µM): 0.747 | relative viability ([1]; first compound 0.8 µM): 0.675 | relative viability ([1]; first compound 2.53 µM): 0.596 | relative viability ([1]; first compound 8 µM): 0.37 | relative viability ([2]; first compound 0.01 µM): 0.56 | relative viability ([2]; first compound 0.03162 µM): 0.536 | relative viability ([2]; first compound 0.1 µM): 0.574 | relative viability ([2]; first compound 0.3162 µM): 0.561 | relative viability ([2]; first compound 1 µM): 0.587 | relative viability ([3]; first compound 0.08 µM): 0.816 | relative viability ([3]; first compound 0.253 µM): 0.82 | relative viability ([3]; first compound 0.8 µM): 0.834 | relative viability ([3]; first compound 2.53 µM): 0.674 | relative viability ([3]; first compound 8 µM): 0.202 | relative viability ([4]; first compound 0.0002 µM): 0.762 | relative viability ([4]; first compound 0.000632 µM): 0.757 | relative viability ([4]; first compound 0.002 µM): 0.762 | relative viability ([4]; first compound 0.006325 µM): 0.727 | relative viability ([4]; first compound 0.02 µM): 0.595

NCI-H2170
relative viability ([1]; first compound 0.08 µM): 0.759 | relative viability ([1]; first compound 0.253 µM): 0.728 | relative viability ([1]; first compound 0.8 µM): 0.683 | relative viability ([1]; first compound 2.53 µM): 0.377 | relative viability ([1]; first compound 8 µM): 0.189 | relative viability ([2]; first compound 0.01 µM): 0.47 | relative viability ([2]; first compound 0.03162 µM): 0.393 | relative viability ([2]; first compound 0.1 µM): 0.47 | relative viability ([2]; first compound 0.3162 µM): 0.453 | relative viability ([2]; first compound 1 µM): 0.441 | relative viability ([3]; first compound 0.08 µM): 0.867 | relative viability ([3]; first compound 0.253 µM): 0.921 | relative viability ([3]; first compound 0.8 µM): 0.65 | relative viability ([3]; first compound 2.53 µM): 0.211 | relative viability ([3]; first compound 8 µM): 0.153 | relative viability ([4]; first compound 0.0002 µM): 0.253 | relative viability ([4]; first compound 0.000632 µM): 0.266 | relative viability ([4]; first compound 0.002 µM): 0.306 | relative viability ([4]; first compound 0.006325 µM): 0.266 | relative viability ([4]; first compound 0.02 µM): 0.2

NCI-H2347
relative viability ([1]; first compound 0.08 µM): 0.37 | relative viability ([1]; first compound 0.253 µM): 0.431 | relative viability ([1]; first compound 0.8 µM): 0.465 | relative viability ([1]; first compound 2.53 µM): 0.347 | relative viability ([1]; first compound 8 µM): 0.197 | relative viability ([2]; first compound 0.01 µM): 0.607 | relative viability ([2]; first compound 0.03162 µM): 0.561 | relative viability ([2]; first compound 0.1 µM): 0.579 | relative viability ([2]; first compound 0.3162 µM): 0.563 | relative viability ([2]; first compound 1 µM): 0.653 | relative viability ([3]; first compound 0.08 µM): 0.593 | relative viability ([3]; first compound 0.253 µM): 0.686 | relative viability ([3]; first compound 0.8 µM): 0.583 | relative viability ([3]; first compound 2.53 µM): 0.44 | relative viability ([3]; first compound 8 µM): 0.262 | relative viability ([4]; first compound 0.0002 µM): 0.922 | relative viability ([4]; first compound 0.000632 µM): 1.05 | relative viability ([4]; first compound 0.002 µM): 0.942 | relative viability ([4]; first compound 0.006325 µM): 0.849 | relative viability ([4]; first compound 0.02 µM): 0.37

NCI-H2405
relative viability ([1]; first compound 0.08 µM): 0.619 | relative viability ([1]; first compound 0.253 µM): 0.571 | relative viability ([1]; first compound 0.8 µM): 0.651 | relative viability ([1]; first compound 2.53 µM): 0.373 | relative viability ([1]; first compound 8 µM): 0.209 | relative viability ([2]; first compound 0.01 µM): 0.769 | relative viability ([2]; first compound 0.03162 µM): 0.717 | relative viability ([2]; first compound 0.3162 µM): 0.762 | relative viability ([2]; first compound 1 µM): 0.63 | relative viability ([3]; first compound 0.08 µM): 1.05 | relative viability ([3]; first compound 0.253 µM): 1.1 | relative viability ([3]; first compound 0.8 µM): 1.02 | relative viability ([3]; first compound 2.53 µM): 0.406 | relative viability ([3]; first compound 8 µM): 0.142 | relative viability ([4]; first compound 0.0002 µM): 0.817 | relative viability ([4]; first compound 0.002 µM): 1.01 | relative viability ([4]; first compound 0.006325 µM): 0.112 | relative viability ([4]; first compound 0.02 µM): 0.121

NCI-H3122
relative viability ([1]; first compound 0.08 µM): 0.901 | relative viability ([1]; first compound 0.253 µM): 0.763 | relative viability ([1]; first compound 0.8 µM): 0.975 | relative viability ([1]; first compound 2.53 µM): 0.675 | relative viability ([1]; first compound 8 µM): 0.186 | relative viability ([2]; first compound 0.01 µM): 0.434 | relative viability ([2]; first compound 0.03162 µM): 0.489 | relative viability ([2]; first compound 0.1 µM): 0.39 | relative viability ([2]; first compound 0.3162 µM): 0.435 | relative viability ([2]; first compound 1 µM): 0.453 | relative viability ([3]; first compound 0.08 µM): 1.03 | relative viability ([3]; first compound 0.253 µM): 0.977 | relative viability ([3]; first compound 0.8 µM): 0.989 | relative viability ([3]; first compound 2.53 µM): 0.879 | relative viability ([3]; first compound 8 µM): 0.511 | relative viability ([4]; first compound 0.0002 µM): 0.943 | relative viability ([4]; first compound 0.000632 µM): 1.01 | relative viability ([4]; first compound 0.002 µM): 1.01 | relative viability ([4]; first compound 0.006325 µM): 0.902 | relative viability ([4]; first compound 0.02 µM): 0.202
